Laboratory results as given in patent US20160287565A1, “COMBINATION THERAPY FOR TREATING DISORDERS ASSOCIATED WITH EXCESS CORTISOL PRODUCTION” (Millendo Therapeutics, Inc., priority 2015, published 2016).

Key:
Dogs = experiment: ATR-101 in dogs, serum steroid and steroid precursor levels by LC-MS/MS pre- and post-ACTH stimulation; type: in vivo, dog; conditions: 3 mg/kg daily 7 days then 30 mg/kg 7 days, oral gavage
Description: Changes in steroid and steroid intermediate levels are shown as % reduction as compared to maximum level as measured on Day 0. *Day 1 data used for maximum steroid level. **Day 3 data used for maximum steroid level.
Dogs were administered daily doses of 3 mg/kg of ATR-101 for 7 days by oral gavage, and then 30 mg/kg for 7 days by oral gavage. Blood was collected on day 14 to measure basal steroid and steroid precursor serum levels (pre-ACTH stimulation) and steroid/steroid precursor levels post-ACTH stimulation by LC-MS/MS. For ACTH stimulation, 5 μg/kg (not to exceed 250 μg) of CORTROSYN™ (also known as cosyntropin or synthetic ACTH) was administered via bolus i.v. administration, and blood samples were collected 1 hour post-CORTROSYN™ administration. Changes in steroid and steroid precursor levels are shown as % reduction as compared to maximum level as measured on Day 0, except as noted (see, FIG. 2; *Day 1 data used for maximum steroid level; **Day 3 data used for maximum steroid level).

[1] = test system: human adult patients with Cushing's disease; conditions: cited from earlier work
[2] = test system: human, adult patients with Cushing's disease; conditions: cited from earlier work

## CC(C)c1cccc(C(C)C)c1NC(=O)NCC1(c2ccc(N(C)C)cc2)CCCC1 [ATR-101, N-(2,6-bis(1-methylethyl)-phenyl)-N′-((1-(4-(dimethylamino)phenyl)cyclopentyl)-methyl)urea]
Dogs; day 14, FIG. 4
  synthesis of steroids and steroid precursors produced in the adrenal cortex: broad inhibitory effects
Dogs; day 14 serum
  11-deoxycorticosterone level: decreased
  11-deoxycortisol level: decreased
  testosterone level: decreased

## N#Cc1ccc([C@H]2CCc3cncn32)c(F)c1 [osilodrostat]
[1]; during LCI699 treatment (day 70) vs day 1, FIG. 2A
  secretion of ACTH: increased secretion of ACTH
[1]; during LCI699 treatment (day 70), 8 females, FIG. 2C
  testosterone levels (in females): increased
[1]; during LCI699 treatment (day 70), FIG. 2B
  11-deoxycortisol level: build-up
[1]; during LCI699 treatment (day 70), FIG. 2D
  11-deoxycorticosterone levels: increased
[1]; during LCI699 treatment (day 70), up to 100 mg/day b.i.d., n=12
  serum cortisol: decrease in serum cortisol
[2]; 22-week treatment course
  females developing acne: three
  females developing hirsutism: two
  females with elevated testosterone who developed adverse symptoms of androgen excess: Four
[2]; of the 12 women who completed 22 weeks, normal range 2-45 ng/dL, 4-60 mg/day
  women with above normal testosterone levels during the treatment course: 9
